How the values were obtained:
[1] = test system: chick chorioallantoic membrane (CAM) blood vessel branching; test: Chorioallantoic membrane (CAM) model of angiogenesis; type: in vivo
Description: In vivo neovascularization was examined by methods described previously. 9-12 Ten-day-old chick embryos were purchased from SPAFAS (Preston, Conn.) and incubated at 37° C. with 55% relative humidity. A hypodermic needle was used to make a small hole in the shell concealing the air sac, and a second hole was made on the broad side of the egg, directly over an avascular portion of the embryonic membrane that was identified by candling. A false air sac was created beneath the second hole by the application of negative pressure at the first hole, causing the CAM to separate from the shell. A window approximately 1.0 cm^2 was cut in the shell over the dropped CAM with a small-crafts grinding wheel (Dremel, division of Emerson Electric Co.), allowing direct access to the underlying CAM. […] Sterile disks of No. 1 filter paper (Whatman International) were pretreated with 3 mg/mL cortisone acetate and 1 mmol/L PTU and air dried under sterile conditions. Thyroid hormone, hormone analogs, FGF2 or control solvents, and inhibitors were then applied to the disks and the disks allowed to dry. The disks were then suspended in PBS and placed on growing CAMs. […] At 24 hours, the MAPK cascade inhibitor PD 98059 was also added to CAMs topically by means of the filter disks.
After incubation at 37° C. with 55% relative humidity for 3 days, the CAM tissue directly beneath each filter disk was resected from control and treated CAM samples. Tissues were washed 3× with PBS, placed in 35-mm Petri dishes (Nalge Nunc), and examined under an SV6 stereomicroscope (Zeiss) at X50 magnification. Digital images of CAM sections exposed to filters were collected using a 3-charge-coupled device color video camera system (Toshiba) and analyzed with Image-Pro software (Media Cybernetics). The number of vessel branch points contained in a circular region equal to the area of each filter disk were counted. One image was counted in each CAM preparation, and findings from 8 to 10 CAM preparations were analyzed for each treatment condition (thyroid hormone or analogs, FGF2, FGF2 antibody, PD 98059). In addition, each experiment was performed 3 times. The resulting angiogenesis index is the mean±SEM of new branch points.

[2] = test system: Human medullary carcinoma of the thyroid (MTC) cells; test: Tumor growth and angiogenesis in the CAM cancer implant model; type: in vivo, chick; conditions: 1 μg/CAM, 8 days, n=8
From the text: Penicillin streptomycin (1%) was present in both culture media. […] Water and food were provided ad libitum.

GL261 tumor cells = test: GL261 apoptosis and necrosis with or without 5 Gy x-rays; type: cell-based, murine; conditions: Tetrac 2 μM, T-NP 0.2 μM
Description: FIG. 61 is a comparison of apoptosis on Tetrac (2 μM) and T-NP (0.2 μM) treated GL261 cells that were or were not exposed to 5 Gy x-rays. The effects of Tetrac and T-NP plus 5 Gy of x-rays on apoptosis appear to be supra-additive.
Apoptotic cells were identified using TUNEL staining (Terminal deoxynucleotidyl transferase dUTP nick end labeling (TUNEL)) (staining kit obtained from Oncor, Gaithersberg, Md.; ApoTag) (See Gavrieli et al., J. Cell. Biol. 1992. 119:493-501). The staining procedures were carried out as instructed by the manufacturer. Gill's hematoxylin was used as a counterstain to discriminate negative cells (purple) from positive cells (brown). Negative controls were performed by omitting the terminal deoxynucleotidyl transferase enzyme. […]
To perform FCM, a total of 10^6 adherent cells were trypsinized and washed once in ambient temperature PBS. […] Cells were left overnight at 4° C. in the dark and were then analyzed on a Coulter fluorescence-activated cell sorter (Coulter Electronics, Hialeah, Fla.). Cells were excited with a single 488 nm argon laser and the resulting fluorescence was detected using a 585 nm filter. Linear red-orange fluorescence (FL3) data were collected in list format and 10,000 events were collected. The distribution of cells within the cell cycle (sub-G1, G1, S, and G2 M phases) was determined using a Coulter software program.

[3] = test system: SKN-SH, SaOS2 and MCF7 cells, drug-sensitive and -resistant; test: Proliferation of drug-sensitive versus drug-resistant cancer cells (MTT assay); type: cell-based; conditions: 4 days
Description: Drug-sensitive and -resistant SKN-SH (FIGS. 13C-D), SaOS2 (FIGS. 13A-B), and MCF7 (FIGS. 13E-F) cells were subjected to treatment with increasing concentrations of Tetrac or Doxirubicin over a period of 4 days. Cell viability was then measured by MTT assay. The data represent the average of 4 determinations±SE.
Doxorubicin resistant SKN-SH/R, MCF7/R and SaOS2/R cells were subjected to treatment with Tetrac either alone or in combination with each of doxorubicin (Dox), etoposide (Etop), cisplatin (Cisp), or trichostatin A (TSA) at the indicated concentrations, After 4 days in cell viability was determined by the MTT assay and the data represented as average of 3 determinations±SE.

MCF7 and MCF7/R cells = test: Intracellular accumulation of radiolabeled doxorubicin; type: cell-based; conditions: 24 hours, presence of Tetrac
Description: The cells were incubated for 24 hours with doxorubicin in the absence or the presence of Tetrac, after that they were washed and then solubilized. Radioactivity associated with the cell lysates was counted and compared between the two cell lines either treated or not with Tetrac. The data represent an average of 3 determinations±SE.

SKN-SH/R cells = test: Senescence and apoptosis in drug resistant cells; type: cell-based; conditions: 24 h
Description: In FIG. 16A, SKN-SH/R cells were subjected to treatment doxorubicin (Dox) alone, Tetrac alone, or the combination of both for 24 h. Expression of p21/WAF1, cleaved caspase-3 (Cl-Casp-3) and beta action were measured by Western blot using specific antibodies.
FIG. 16B discloses the cells were seeded in 24 well plates and treated as mentioned above and expression of the senescence associated beta galactosidase (SA-β-Gal.) was assayed as described in the methods section.
FIG. 16C discloses the cells were seeded on cover slips and treated with the drugs as above for 24 h, after which they were fixed and stained with Hoechst and the percentage of positive cells graphed. The data represent average of 3 determinations±SE.

[4] = test system: human medullary carcinoma of the thyroid (MTC) xenografts; conditions: mouse, in vivo
Description: (§1) Human medullary carcinoma cells (TT, Catalog No. CRL-1803) were purchased from American Type Culture Collection (Manassas, Va.) and cultured as instructed by the supplier, using a complete growth medium consisting of F-12K medium with 10% FBS. Cells were cultured in 5% CO2/air atmosphere at 37 C to sub-confluence and then treated with 0.25% (w/v) trypsin/EDTA to affect cell release from the culture vessel. After washing with culture medium, the cells were suspended in DMEM (free of phenol red and FBS) and counted. • Tetrac versus tetrac NP distribution in h-MTC. […] Female NCr nude homozygous mice aged 5-6 weeks and body weights of 20 g were purchased form Taconic Farms (Hudson N.Y.). Animals were maintained under specific pathogen-free conditions and housed 4 animals per cage, under controlled conditions of temperature (20-24° C.) and humidity (60-70%) and a 12 h light/dark cycle. Water and food were provided ad libitum.

[5] = test system: human medullary carcinoma of the thyroid (MTC) xenografts; test: MTC xenograft in nude mice; conditions: over the course of administration
Description: as §1

O=C(O)Cc1cc(I)c(Oc2cc(I)c(O)c(I)c2)c(I)c1 [Tetrac, tetraiodothyroacetic acid]
Mean % Inhibition ([1]; FGF (1.25 μg/ml) + Tetrac or analog at 10 μg/plug): 85%
effect on action of T4 on angiogenesis ([1]; Tetrac 0.1 μmol/L with T4): inhibited the action of T4
effect of Tetrac alone on angiogenesis ([1]; Tetrac alone): no effect on angiogenesis
effect on action of T4-agarose on angiogenesis ([1]; Tetrac with T4-agarose 0.1 μmol/L): inhibited
tumor growth [2]: effective inhibition
tumor-mediated angiogenesis [2]: significant inhibition
effect on apoptosis combined with 5 Gy of x-rays (GL261 tumor cells): supra-additive
effect on necrosis combined with x-rays (GL261 tumor cells; 120 hours): essentially additive
anti-proliferative activity against drug-sensitive and drug-resistant cells ([3]; MTT): equivalent anti-proliferative activity
cellular responses to doxorubicin, etoposide, cisplatin and TSA combined with Tetrac ([3]; resistant cells): significantly enhanced
intracellular accumulation of radiolabeled doxorubicin (MCF7 and MCF7/R cells): increased significantly
doxorubicin-induced proliferation arrest, SA-β-Gal and cell death (SKN-SH/R cells): dramatically enhanced
mortality [4]: no mortality
decrease in tumor tissue hemoglobin content [5]: 66%
